Activity calls are given as the source filed them. The calls are words filed in the database; no cut-off is given here.
Legend:
[1] = Quenching activity of compound in pH 7.4 PBS assessed as 4-HNE consumption at 2 mmol/L after 1 hr by HPLC analysis; assay type: functional
Meriones unguiculatus [2] = experiment: (§1) Neuroprotective activity against BCCO-induced transient cerebral ischemia in mongolian gerbil hippocampal CA1 region assessed as increase in viable neurons at 100 mg/kg, ip administered immediately after BCCO treatment and measured after 7 days by hematoxylin and eosin staining-based light microscopic analysis; assay type: functional, organism-based
[3] = Quenching activity of compound in pH 7.4 PBS assessed as 4-HNE consumption at 2 mmol/L after 30 mins by HPLC analysis relative to control; assay type: functional
PC-12 [4] = experiment: Neuroprotective activity against 4-HNE-induced toxicity in rat PC12 cells preincubated for 30 mins followed by compound wash and 4-HNE addition measured after 24 hrs by MTT assay; assay type: functional, cell-based
PC-12 [5] = experiment: Neuroprotective activity against 4-HNE-induced toxicity in rat PC12 cells at 30 mM preincubated for 30 mins followed by compound wash and 4-HNE addition measured after 24 hrs by MTT assay relative to control; assay type: functional
PC-12 [6] = experiment: Cytotoxicity against rat PC12 cells at 1 to 50 mM after 30 mins by MTT assay; assay type: cell-based; settings: pc-12, 0.5 h, 50000 µM
Meriones unguiculatus [7] = experiment: Neuroprotective activity against BCCO-induced transient cerebral ischemia in mongolian gerbil hippocampal CA1 region assessed as increase in Hsp70 activity at 20 mg/kg, ip administered 20 mins prior to BCCO treatment measured after 24 hrs by immunostaining analysis; assay type: functional, organism-based
Meriones unguiculatus [8] = experiment: as §1, with “20” for “100”, “20 mins prior to” for “immediately after”, “analysis relative to control” for “analysis”; assay type: functional
Meriones unguiculatus [9] = experiment: as §1, with “analysis relative to control” for “analysis”; assay type: functional

| SMILES | Activity [1] | Activity [3] | further results |
| --- | --- | --- | --- |
| CC(=O)NCCC(=O)N[C@@H](Cc1c[nH]cn1)C(=O)NN | Active |  |  |
| NNC(=O)[C@@H](N)Cc1c[nH]cn1 | Active | 70% | Activity (Meriones unguiculatus [2]): inactive |
| NCCC(=O)N[C@@H](Cc1c[nH]cn1)C(=O)NN | Active | 90% | Activity (PC-12 [4]): Dose-dependent effect; Activity (PC-12 [5]): 100%; Activity (PC-12 [6]): Non-Toxic; Activity (Meriones unguiculatus [7]): Active; Activity (Meriones unguiculatus [8]): >60%; Activity (Meriones unguiculatus [9]): 40% |
| NCCC(=O)N[C@@H](Cc1c[nH]cn1)C(=O)O | Active | 20% |  |
| CC(=O)NNC(=O)[C@H](Cc1c[nH]cn1)NC(=O)CCN | Active |  |  |
| CC(=O)NCCC(=O)N[C@@H](Cc1c[nH]cn1)C(=O)NNC(C)=O | Active |  |  |

— ChEMBL document CHEMBL4330072, “Neuroprotective effects of a novel carnosine-hydrazide derivative on hippocampal CA1 damage after transient cerebral ischemia” (Eur J Med Chem, 2019)
